Earlier results in patent publication USRE35801E, “Prophylactic and therapeutic composition for circulatory disorders and method of treatment” (priority 1985, dated 1998).

Tests used:
[1] = test system: lipid peroxidation by active oxygen; conditions: cited from earlier work
central nervous system = conditions: in vivo; cited from earlier work
[2] = test system: electroencephalogram under normal state; conditions: deemed to be a side action in clinic; cited from earlier work
[3] = cited from earlier work

| Compound | inhibition of lipid peroxidation by active oxygen [1] | central nervous system depressant activity (central nervous system) | action against electroencephalogram under normal state [2] | solubilizing in water [3] |
| --- | --- | --- | --- | --- |
| CCN(CC)Cc1nccn1-c1ccc([N+](=O)[O-])cc1C(=O)c1ccccc1Cl [nizofenone] | can inhibit lipid peroxidation by active oxygen | potent central nervous system depressant activity | – | – |
| NC(=O)[C@@H]1CCCN1C(=O)[C@H](Cc1cnc[nH]1)NC(=O)[C@@H]1CCC(=O)N1 [TRH, L-pyrroglutamyl-L-histidyl-L-prolineamide] | – | – | exhibites an action | – |
| COC1=C(OC)C(=O)C(CCCCCCCCCCO)=C(C)C1=O [idebenone] | can inhibit lipid peroxidation by active oxygen | – | – | difficulty in solubilizing in water |
